Test results taken from patent publication US20250332178A1, “METHODS OF TREATING MYCOBACTERIAL INFECTIONS USING TETRACYCLINE COMPOUNDS” (priority 2018, published 2025).
≈ marks a conversion by molar mass, not a printed value.

Assays:
[1] = MIC by broth microdilution in CAMHB, clinical isolates; format: cell-based, Mycobacterium chelonae
[2] = test system: M. abscessus subsp. abscessus CIP 104536; experiment: Time-kill kinetics assay; format: cell-based
Description: Briefly, M. abscessus cultures were exposed to antimicrobial drugs at 4-fold increasing concentrations for 7 days at 37° C. under shaking conditions at 96 rpm. […] The drug concentrations ranged from 0.063 to 256 mg/L for both compounds. […] At day 1, 3 and 7 during drug exposure, samples were collected, centrifuged at 14000 xg to avoid anti-NTM drug carry over, serially diluted (10-fold, 10^0-10^7) and subcultured onto solid medium. […] The lower limit of detection was 5 cfu/mL (log 0.7). All experiments were performed in duplicate. Time-kill curves, as well as concentration-effect curves were generated.

[3] = test system: M. abscessus subsp. abscessus CIP 104536; format: cell-based; conditions: at 4 mg/L, after 7 days of drug exposure; subculture plates 16 mg/L
[4] = Intra-pulmonary steady-state concentrations (plasma, ELF, alveolar cells) after multiple IV doses in healthy adult subjects; format: in vivo, human; conditions: model-computed
Description: The remaining 20 subjects received tigecycline as 1 intravenous dose of 100 mg administered as a 30 minute infusion at t=0, followed by 6 intravenous doses of 50 mg administered as 30 minute infusions at t=12, 24, 36, 48, 60, and 72 hours. A study completion visit was conducted on the day following the final test article dose. There was a final follow-up assessment 7 to 14 days following the subject's last dose of test article which may be completed by telephone contact or other interactive technology unless an examination was needed to evaluate adverse events or abnormalities noted at the study completion visit.
Plasma PK samples were collected pre-dose and at 0.5, 1, 1.5, 2, 3, 4, 6, 8, 12 and 24 hours post-dose on day 4. […] One BAL sample was collected from each subject on day 4. Subjects were randomized to one of the following collection times: 0.5, 1, 2, 4, 8, 12 or 24 hours post-dose.

[5] = 52 patients, M. abscessus and M. chelonae infections; Wallace et al.; cited from earlier work
[6] = test system: M. abscessus subsp. abscessus CIP 104536; experiment: MIC according to CLSI guidelines; conditions: Mycobacteroides abscessus, CIP104536, read-out: Minimal Inhibitory Concentration (MIC)
Description: Vials with M. abscessus suspensions were stored at −80° C. Cultures on solid medium were grown on Mueller Hinton II agar (BD), supplemented with 10% OADC and 0.5% glycerol for 10 days at 37° C. with 5% CO2.

[7] = test system: Bacille Calmette Guerin (BCG); format: cell-based, Mycobacterium bovis; conditions: disk: 15 μg of clarithromycin

CN(C)c1cc(NC(=O)CNC(C)(C)C)c(O)c2c1C[C@H]1C[C@H]3[C@H](N(C)C)C(O)=C(C(N)=O)C(=O)[C@@]3(O)C(O)=C1C2=O [Tigecycline, tigecycline]
MIC90 [1]: 0.125 µg/mL (≈ 0.213 µM)
MIC ([1]; isolate No. 1, MC 7323): 0.125 µg/mL (≈ 0.213 µM)
MIC ([1]; isolate No. 2, MC 7534): 0.03 µg/mL (≈ 0.0512 µM)
MIC ([1]; isolate No. 3, MC 7368): 0.03 µg/mL (≈ 0.0512 µM)
MIC ([1]; isolate No. 4, MC 7514): 0.06 µg/mL (≈ 0.102 µM)
MIC ([1]; isolate No. 5, MC 7584): 0.06 µg/mL (≈ 0.102 µM)
MIC ([1]; isolate No. 6, MC 7192): 0.03 µg/mL (≈ 0.0512 µM)
MIC ([1]; isolate No. 7, MC 7466): 0.03 µg/mL (≈ 0.0512 µM)
MIC ([1]; isolate No. 8, MC 7533): 0.125 µg/mL (≈ 0.213 µM)
MIC ([1]; isolate No. 9, MC 7579): 0.03 µg/mL (≈ 0.0512 µM)
MIC ([1]; isolate No. 10, MC 7614): 0.125 µg/mL (≈ 0.213 µM)
MIC ([1]; isolate No. 11, MC 7414): 0.06 µg/mL (≈ 0.102 µM)
MIC ([1]; isolate No. 12, MC 7313): 0.25 µg/mL (≈ 0.427 µM)
MIC ([1]; isolate No. 13, MC 7281): 0.5 µg/mL (≈ 0.854 µM)
MIC ([1]; isolate No. 14, MC 7328): 0.015 µg/mL (≈ 0.0256 µM)
MIC ([1]; isolate No. 15, MC 7294): 0.125 µg/mL (≈ 0.213 µM)
MIC ([1]; isolate No. 16, MC 14-S-03): 0.5 µg/mL (≈ 0.854 µM)
MIC ([1]; isolate No. 17, MC 14-S-04): 0.06 µg/mL (≈ 0.102 µM)
MIC ([1]; isolate No. 18, MC 14-S-05): 0.125 µg/mL (≈ 0.213 µM)
MIC ([1]; isolate No. 19, MC 14-S-06): 0.03 µg/mL (≈ 0.0512 µM)
MIC ([1]; isolate No. 20, MC 14-S-07): 0.06 µg/mL (≈ 0.102 µM)
MIC ([1]; isolate No. 21, MC 35757): 0.125 µg/mL (≈ 0.213 µM)
MIC ([1]; isolate No. 22, MC 7302): 0.25 µg/mL (≈ 0.427 µM)
concentration for 1 log mycobacterial killing ([2]; after 7 days of exposure): 2.7 mg/L
concentration for 2 log mycobacterial killing ([2]; after 7 days of exposure): 3.4 mg/L
concentration for stasis (concentration-effect curve) ([2]; after 7 days of exposure): 2.2 mg/L
concentrations showing mycobacterial killing ([2]; time-kill, up to 7 days exposure): ≥ 4 mg/L
selection of drug resistance above the spontaneous mutation frequency [3]: 0.6%
AUC ([4]; human, in vivo, compartment models, read-out: Total-drug AUC72-96, ELF (Median)): 2590 ng·h/mL
Kp ([4]; human, in vivo, read-out: Penetration Ratio: total-drug ELF AUC72-84 to free-drug plasma AUC72-84 (Median)): 1.87
Free-drug AUC72-96, Plasma (Median) ([4]; compartment models): 1380 ng·h/mL
dose reductions due to nausea, vomiting or anorexia [5]: Approximately half of the patients had dose reductions
MIC [6]: 4 µg/mL (≈ 6.83 µM)

CC[C@H]1OC(=O)[C@H](C)[C@@H](O[C@H]2C[C@@](C)(OC)[C@@H](O)[C@H](C)O2)[C@H](C)[C@@H](O[C@@H]2O[C@H](C)C[C@H](N(C)C)[C@H]2O)[C@](C)(OC)C[C@@H](C)C(=O)[C@H](C)[C@@H](O)[C@]1(C)O [clarithromycin]
clear zone [7]: 45 mm clear zone
